Assay results as given in US5011828A, “Immunostimulating guanine derivatives, compositions and methods” (priority 1988, dated 1991).
Converted amounts (≈) assume the structure as drawn.

How the values were obtained:
physchem = type: physicochemical, human
Text: Solubilities in urine could be expected to be lower than those for water due to the relatively higher salt content in urine than is found in water.
Each sample was filtered through a 5 micron pore-sized filter, diluted as necessary with the HPLC mobile phase, and then quantified by HPLC.

[1] = tested on: CBA/CaJ thymocytes (irradiated BDF1 splenocyte stimulators); assay: T cell proliferation in mixed leukocyte cultures, CBA/CaJ thymocytes; type: cell-based, mouse; conditions: Study 4, responder +, stimulator +
Text: A third and fourth study utilized thymocytes from CBA/CaJ mice as the stimulated (responder) cells, and irradiated BDFl mouse spleen cells as the stimulator cells. Two guanosine derivatives of the present invention, 7a8MGuo and 7a8oGuo, were used for these studies, with 8MGuo serving as positive control for one of the studies.
However, in the presence of interleukin-2 (IL-2), those cells develop responsiveness to allogeneic stimulation. The present studies utilizing thymocytes were therefore carried out in the presence of a co-stimulating amount of IL-2.
^1 Plus signs (+) are utilized to indicate the presence of the
^3 Allogeneic cells used to costimulate proliferation, after exposure
T Helper Cell Activation. 1.5×10^5 viable spleen cells from SJL mice or CBA/CaJ mouse thymocytes were cultured with or without an equal number of irradiated (2500 rads) spleen cells from CBA/CaJ or BDFl mice respectively, in 0.2 ml of culture medium in the presence of incremental concentrations of the exemplary 7,8-disubstituted guanine derivatives. The lymphocyte culture medium utilized was that described before, and was further supplemented with 2-mercaptoethanol to a final concentration of 50 uM. Thymocyte cultures also contained 10 percent (v/v) of a concanavalin A-conditioned rat spleen cell medium sold under the name Rat T Cell Monoclone by Collaborative Research. Following 90 hours of culture, one microCurie [^3 H]TdR per culture was admixed, and the resulting culture was maintained for a further six hour time period.
The cultures were harvested with a Brandel cell harvester (M24V, Biological Research and Development Laboratories, Rockville, Md.) onto glass fiber filter disks. Filter disks were transferred to plastic scintillation vials, covered with liquid scintillation cocktail, and counted in a Beckman LS5700 liquid scintillation counter.

[2] = tested on: human peripheral blood lymphocytes (sheep red blood cells as antigen); assay: Antigen-specific adjuvanticity: direct anti-SRBC plaque forming cells, human system; type: cell-based
Experimental: ^1 Studies were carried in a manner similar to those of Table 1,
except that a human lymphocyte preparation was used.
The results shown in Table 7, below, were obtained similarly to those discussed above, but using human lymphocytes. Some of those studies utilized lymphocytes from more than one individual, and are therefore reported with multiple entries.
Human peripheral blood lymphocytes (PBL) were prepared from normal heparinized venous blood by Ficoll-diatrizoate density gradient centrifugation. PBL were depleted of suppressor T cells bearing the histamine type 2 receptor by adhering them to the surfaces of histamine-rabbit serum albumin-coated plastic petri dishes (Cell-ect No. 2 kit; Seragen, Boston, Mass.) and by recovering the nonadherent cells by panning as described by Wysocki and Sato, Proc. Natl. Acad. Sci. USA, 75:2844 (1978) and modified by Cavagnaro and Osband, Biotechniques, January/February:30 (1983).
The tissue culture medium employed in these studies for human lymphocytes was prepared as follows: One hundred milliliters (ml) contained 87.9 ml RPMI 1640 (Flow Laboratories, Rockville, Md.), 0.1 ml 100×glutamine,1.0 ml of 1.0 M HEPES buffer (Microbilogical Associates, Betheseda, Md.), 1.0 ml of water containing 10^4 U of penicillin G and 10^4 micrograms of streptomycin, and 10 ml of fresh autologous heat-inactivatedplasma. For evaluation of the primary humoral immune response to SRBC, lymphoid cells prepared as above were cultured at a density of 2×10^6 /ml in a volume of 1.0 ml containing 5×10^6 SRBC as antigen (Colorado Serum Co., Denver, Colo.) together with IL-2 (a partially purified preparation of human IL-2 that was free of interferon-gamma activity was obtained from Electro-Nucleonics, Inc., Silver Spring, Md.) and the guanine nucleoside derivative.
(§1) Assay of plaque forming cells (PFC). PFC secreting antibodies against SRBC were evaluated after 4 or 5 days of culture using a modification of the hemolytic plaque assay of Jerne and Nordin, Science, 140:405 (1963). The cells were brought up in complete medium before plaquing; they were plaqued in standard low Mr agarose (Bio-Rad Laboratories, Richmond Calif.), and were incubated in SRBC-absorbed guinea pig complement for one hour after a 1.5 hour incubation without complement.

CBA/N mouse spleen cells = assay: In vitro reconstitution of primary humoral immune response to SRBC, immunodeficient CBA/N spleen cells (FIG. 2); type: cell-based
Text: (§2) FIG. 2 is a graph that illustrates the in vitro reconstitution of the primary humoral immune response to a specific antigen, SRBC, in cultured immunodeficient CBA/N mouse spleen cells (dotted line) obtained by contacting those cells with an aqueous composition containing 7a8oGuo, in the further presence of SRBC. A similar study using spleen cells from immunocompetent CBA/CaJ mice (solid line) is also shown in the graph for comparison. The points on each line represent the PFC value obtained in the presence of the indicated amount of 7a8oGuo plus SRBC. The ordinate and abscissa are as in FIG. 1. Further details of this study are provided hereinafter.
(§3) Cultures of spleen cells from male and female homzygous CBA/N and male mice heterozygous for the CBA/N gene, called the xid gene, (male mice bear the X chromosome) was prepared as described in the Materials and Methods Section. 0.1 Milliters of a 0.1 percent (v/v) SRBC suspension alone or the SRBC suspension plus incremental amounts of 7a8oGuo were added to the cultures, using 5×10^6 cells/ml. Direct anti-SRBC […] per culture were assessed after 4 days of culture.

[3] = tested on: murine lymphocytes (sheep red blood cells as antigen); assay: Antigen-specific adjuvanticity: direct anti-SRBC plaque forming cells, murine system; type: cell-based, mouse
Text: ^1 Adjuvanticities against sheep red blood cells [SRBC] measured in
direct plaqueforming cells per culture of lymphocytes from the mouse
strains shown. Details of the procedure are provided in the Materials and
Methods Section. Standard errors from the enumerated mean values are show
A large number of comparisons of adjuvanticity using human and murine lymphocytes as the source of leukocytes have been carried out using compounds of the present invention, as well as with new compounds excluded from the present invention. […] Interstudy comparisons are however useful for showing trends and large differences. Tables 5, 6 and 7, hereinafter, provide exemplary data from such studies in which only the activity at the peak concentration is shown for each compound and the results for the controls are omitted.
Lymphocyte cultures. The serum-containing culture medium water prepared to contain the following per 100 milliliters: 91.9 milliliters RPMI 1640 (Flow Laboratories, Inc., Rockville, Md.), 0.1 milliliters of 100×glutamine, 1.0 milliliter of 100×sodium pyruvate, 1 0 milliliter of 50×nonessential amino acids, 1.0 milliliter of water containing 10^4 units of penicillin G and 10^4 micrograms of streptomycin, and 5.0 milliliters of a supportive lot of fetal calf serum (FCS). These ingredients were admixed to apparent homogeneity. Spleen cell suspensions and populations enriched for splenic B cells were prepared as described in Goodman et al., J. Immunol., 121:1905 (1978).
For evaluation of the primary humoral immune response to sheep erythrocytes (SRBC), 5×10^6 to 10^7 murine spleen cells were cultured in 1.0 milliliter of 5% FCS-containing medium for 4 or 5 days in the presence and absence of immunogen. Cells were incubated in culture trays (Costar, Cambridge, Mass.) at 37° C. in a humidified atmosphere of 10% CO2 in air using tissue culture boxes (CBS Scientific, Del Mar, Calif.) that were rocked at a frequency of 7 cycles per minute. Pooled SRBC are available from the Colorado Serum Co., Denver Colo.
as §1

murine spleen cells = assay: Mitogenicity: [3H]TdR uptake, murine system; type: cell-based, mouse; conditions: Table 4
Text: ^1 Mitogenicity measured by the uptake of [^3 H]TdR
(tritiumlabeled thymidine deoxyribonucleoside) as determined by measuring
counts per minute (cpm) per cell culture using the conditions discussed i

[4] = tested on: CBA/CaJ mouse spleen cells; assay: Primary humoral response to SRBC, immunocompetent CBA/CaJ spleen cells (comparison in FIG. 2); type: cell-based
Text: as §2, §3
The results of this study comparing cells from CBA/N mice with a preparation of spleen cells from CBA/CaJ mice, are shown in FIG. 2.

- solubility at 18 h (physchem; human, urine): 16.3 mg/mL (≈ 48 mM)
Structure (SMILES): C=CCn1c(=O)n([C@@H]2O[C@H](CO)[C@@H](O)[C@H]2O)c2nc(N)[nH]c(=O)c21 [7a8oGuo, 7-(2-Propenyl)-8-oxoguanosine]
- solubility in human urine, in words (physchem): about a three-fold greater solubility than did 7m8oGuo
- [3H] TdR Uptake ([1]; 10^-4 M): 10,000 ± 800 counts per minute
- [3H] TdR Uptake ([1]; 10^-5 M): 8000 ± 300 counts per minute
- [3H] TdR Uptake ([1]; 10^-6 M): 8300 ± 300 counts per minute
- Peak Direct anti-SRBC PFC/Culture ([2]; Table 7, first group, person a): 3038 ± 288 PFC/Culture
- Peak Direct anti-SRBC PFC/Culture ([2]; Table 7, first group, person b): 9250 ± 1010 PFC/Culture
- Peak Direct anti-SRBC PFC/Culture ([2]; Table 7, first group, person c): 4831 ± 270 PFC/Culture
- Peak Direct anti-SRBC PFC/Culture ([2]; Table 7, second group, person a): 477 PFC/Culture
- Peak Direct anti-SRBC PFC/Culture ([2]; Table 7, second group, person b): 10,313 PFC/Culture
- Peak Direct anti-SRBC PFC/Culture ([2]; Table 7, second group, person c): 4413 PFC/Culture
- Average 1 Log Plaque Values ([2]; Table 9, human, * = single study): 22,640 ± 4187 per micromole
- peak adjuvanticity values greater as compared to 7m8oGuo ([2]; human system (Table 3)): about 100%
- concentration giving the similar PFC/culture values (CBA/N mouse spleen cells): 30 µM
- Peak Direct anti-SRBC PFC/Culture ([3]; Table 5, murine system, at peak concentration): 1827 PFC/Culture
- Direct Anti-SRBC PFC/Culture ([3]; Table 8, 1 × 10^-5 M): 1387 PFC/Culture
- Average 1 Log Plaque Values ([3]; Table 9, murine, * = single study): 98,237 ± 42,041 per micromole
- [3H] TdR Uptake (murine spleen cells; 3 × 10^-4 M): 59,150 ± 420 cpm/culture
- [3H] TdR Uptake (murine spleen cells; 10^-3 M): 51,340 ± 1050 cpm/culture
- [3H] TdR Uptake (murine spleen cells; 10^-4 M): 39,830 ± 780 cpm/culture
- concentration giving the similar PFC/culture values [4]: 10^-5 M
